According to article PMC8509773, “3-Pyridinylidene Derivatives of Chemically Modified Lupane and Ursane Triterpenes as Promising Anticancer Agents by Targeting Apoptosis” (International Journal of Molecular Sciences, 2021):

What was measured:
ACHN = experiment: NCI-60 SRB screening (one-dose and five-dose); format: cell-based, human; details: 48 h; for Growth Percent: 10 μM
Outline: (§1)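 After a 48-h incubation with compound, cellular protein was stained with SRB and growth estimated by spectrophotometry relative to untreated controls.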

CAKI-1 = experiment: NCI-60 SRB screening (one-dose and five-dose); format: cell-based, human; details: 48 h; for Growth Percent: CAKI-1, 10 μM
Outline: (§2)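 Growth inhibition is scored with sulforhodamine B after 48 h of continuous compound exposure. An MG_MID averages each parameter over the whole cell panel, insensitive lines being counted at the top tested concentration.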

CCRF-CEM = experiment: NCI-60 SRB screening (one-dose and five-dose); format: cell-based, human; details: 48 h; for Growth Percent: 10 μM
Outline: as §2

DU-145 = experiment: NCI-60 SRB screening (one-dose and five-dose); format: cell-based, human; details: 48 h; for Growth Percent: DU-145, 10 μM
Outline: as §2

HS 578T = experiment: NCI-60 SRB screening (one-dose and five-dose); format: cell-based, human; details: 48 h; for Growth Percent: 10 μM
Outline: as §2

HT29 = experiment: NCI-60 SRB screening (one-dose and five-dose); format: cell-based, human; details: 48 h; for Growth Percent: HT29, 10 μM
Outline: as §2

KM-12 = experiment: NCI-60 SRB screening (one-dose and five-dose); format: cell-based, human; details: 48 h; for Growth Percent: KM-12, 10 μM
Outline: as §1

M14 = experiment: NCI-60 SRB screening (one-dose and five-dose); format: cell-based, human; details: 48 h; for Growth Percent: M14, 10 μM
Outline: as §2

MALME-3M = experiment: NCI-60 SRB screening (one-dose and five-dose); format: cell-based, human; details: 48 h; for Growth Percent: 10 μM
Outline: as §1

MOLT-4 = experiment: NCI-60 SRB screening (one-dose and five-dose); format: cell-based, human; details: 48 h; for Growth Percent: MOLT-4, 10 μM
Outline: as §2

NCI-H23 = experiment: NCI-60 SRB screening (one-dose and five-dose); format: cell-based, human; details: 48 h; for Growth Percent: NCI-H23, 10 μM
Outline: as §2

OVCAR-3 = experiment: NCI-60 SRB screening (one-dose and five-dose); format: cell-based, human; details: 48 h; for Growth Percent: OVCAR-3, 10 μM
Outline: as §1

OVCAR-4 = experiment: NCI-60 SRB screening (one-dose and five-dose); format: cell-based, human; details: 48 h; for Growth Percent: OVCAR-4, 10 μM
Outline: as §2

OVCAR-8 = experiment: NCI-60 SRB screening (one-dose and five-dose); format: cell-based, human; details: 48 h; for Growth Percent: OVCAR-8, 10 μM
Outline: as §2

PC-3 = experiment: NCI-60 SRB screening (one-dose and five-dose); format: cell-based, human; details: 48 h; for Growth Percent: PC-3, 10 μM
Outline: as §1

SK-MEL-28 = experiment: NCI-60 SRB screening (one-dose and five-dose); format: cell-based, human; details: 48 h; for Growth Percent: SK-MEL-28, 10 μM
Outline: as §2

SN12C = experiment: NCI-60 SRB screening (one-dose and five-dose); format: cell-based, human; details: 48 h; for Growth Percent: 10 μM
Outline: as §2

SNB-19 = experiment: NCI-60 SRB screening (one-dose and five-dose); format: cell-based, human; details: 48 h; for Growth Percent: SNB-19, 10 μM
Outline: as §1

SR = experiment: NCI-60 SRB screening (one-dose and five-dose); format: cell-based, human; details: 48 h; for Growth Percent: 10 μM
Outline: as §2

TK-10 = experiment: NCI-60 SRB screening (one-dose and five-dose); format: cell-based, human; details: TK-10, 10 μM, 48 h
Outline: as §2

UACC-62 = experiment: NCI-60 SRB screening (one-dose and five-dose); format: cell-based, human; details: 48 h; for Growth Percent: UACC-62, 10 μM
Outline: as §1

[1] = system: NCI-60 cancer cell line panel; experiment: NCI-60 cancer cell line panel screening (whole panel / subpanels); format: cell-based; details: single dose 10 µM
Description: At first, compounds were tested in a single high dose concentration regimen (10 µM) against a panel of sixty various cancer cell lines; the results of the screening are outlined in Table 1 in the form of percent growth (GP %) of treated cells versus untreated cells used as control, where negative numbers indicate cell kill. The experimental results of growth inhibition may range from 0 to 100 and indicate a cytostatic effect while negative values indicate cell death and thus a cytotoxic activity (for NCI data see Supplementary Material Figures S6–S12).
The selectivity index (SI) was calculated by dividing the full panel MG_MID60 (μM) of tested compounds by their individual subpanel MG_MID of the cell line (μM); it correlates directly to the selectivity of their anticancer activity (Table 3). […] By contrast, despite its strong antiproliferative effect, compound 7 acts with low selectivity against the various human tumor cell lines, the highest SI value being 1.73.
Compounds 1, 2, and 4–8 were tested at one dose assay (10^−5 M) toward a panel of approximately sixty cancer cell lines representing different cancer types: leukemia, melanoma, lung, colon, CNS, ovarian, renal, prostate, and breast cancers. Primary anticancer assays were performed according to the NCI protocol as described elsewhere (see, e.g., http://dtp.nci.nih.gov accessed on 16 October 2019). The compounds were added at a single concentration and the cell cultures were incubated for 48 h. The end point determinations were made with a protein binding dye, sulforhodamine B (SRB). The results for each compound are reported as the percent growth (GP %) of treated cells compared to untreated control cells (negative numbers indicate cell kill). Compounds with considerable activity against all tested human tumor cell lines (6 and 7) were selected for the advanced assay against a panel of approximately sixty tumor cell lines at 10-fold dilutions of five concentrations (100 µM, 10 µM, 1 µM, 0.1 µM, and 0.01 µM). The percentage of growth was evaluated spectrophotometrically versus controls not treated with test agents after 48-h exposure and using SRB protein assay to estimate cell viability or growth. Three antitumor activity dose–response parameters were calculated for each cell line: GI50—molar concentration of the compound that inhibits 50% net cell growth; TGI—molar concentration of the compound leading to the total inhibition; and LC50—molar concentration of the compound leading to 50% net cell death (presented in negative logarithm). Furthermore, mean graph midpoints (MG_MID) were calculated for each of the parameters, giving an average activity parameter over all cell lines for the tested compound. For the MG_MID calculation, insensitive cell lines were included with the highest concentration tested.

[2] = Homo sapiens, five dose 0.01–100 μM

Row | SMILES | Growth Percent (ACHN) [%] | Growth Percent (CAKI-1) [%] | Growth Percent (CCRF-CEM) [%] | Growth Percent (DU-145) [%] | Growth Percent (HS 578T) [%] | Growth Percent (HT29) [%] | Growth Percent (KM-12) [%] | Growth Percent (M14) [%] | Growth Percent (MALME-3M) [%] | Growth Percent (MOLT-4) [%] | Growth Percent (NCI-H23) [%] | Growth Percent (OVCAR-3) [%] | Growth Percent (OVCAR-4) [%] | Growth Percent (OVCAR-8) [%] | Growth Percent (PC-3) [%] | Growth Percent (SK-MEL-28) [%] | Growth Percent (SN12C) [%] | Growth Percent (SNB-19) [%] | Growth Percent (TK-10) [%] | Growth Percent (UACC-62) [%] | other results
1 | COC(=O)[C@]12CC[C@@H](C(C)=O)[C@@H]1[C@H]1CC[C@@H]3[C@@]4(C)C/C(=C\c5cccnc5)C(=O)C(C)(C)[C@@H]4CC[C@@]3(C)[C@]1(C)CC2 [Compound 8, Methyl 3,20-dioxo-2-(3-pyridinylidene)-29-nor-lup-28-oate] | 32.49 | 51.03 | 7.57 | 68.80 | 74.77 | 16.53 | 60.52 | 56.69 | 29.95 | 5.47 | 53.20 | 49.04 | 26.68 | 38.71 | 24.42 | 31.54 | 57.75 | 67.72 | 132.71 | 34.54 | Growth Percent (SR): 12.35%
2 | C[C@H]1[C@@H]2[C@H]3CC[C@@H]4[C@@]5(C)CC[C@H](O)C(C)(C)[C@@H]5CC[C@@]4(C)[C@]3(C)CC[C@]23CO[C@@]1(C)[C@@H](C(=O)/C=C/c1ccco1)C3 [Compound 5, 3β-Hydroxy-21-[3-(2E-furyl)-prop-2-en-1-one]-20β,28-epoxy-18α,19βH-ursane] | 44.33 | 55.81 | 100.63 | 102.22 | 95.83 | 98.06 | 99.96 | 34.35 | −11.31 |  | 98.55 | 102.55 | 111.19 | 99.33 | 92.69 | 36.66 | 100.53 | 75.34 | 97.40 | 7.16 | 
3 | C[C@H]1[C@@H]2[C@H]3CC[C@@H]4[C@@]5(C)CC[C@H](O)C(C)(C)[C@@H]5CC[C@@]4(C)[C@]3(C)CC[C@]23CO[C@@]1(C)C(C(=O)/C=C/c1cccnc1)C3 (stereo partly drawn) [Compound 4] | 41.58 | 55.59 | 30.84 | 73.94 | 81.98 | 99.49 | 54.39 | 60.79 | 54.41 | 25.21 | 59.51 | 46.73 | 49.03 | 35.05 | 21.26 | 66.23 | 62.68 | 71.61 | 31.89 | 41.49 | 
4 | CC(=O)[C@H]1C[C@]23CC[C@]4(C)[C@H](CC[C@@H]5[C@@]6(C)CCC(=O)C(C)(C)[C@@H]6CC[C@]54C)[C@H]2[C@H](C)[C@@]1(C)OC3 [Compound 2, 3-oxo-21β-acetyl-20β,28-epoxy-18α,19βH-ursane] | 99.80 | 66.38 | 104.98 | 98.96 | 103.91 | 108.96 | 102.54 | 107.08 | 109.60 | 100.88 | 90.60 | 119.38 | 85.13 | 104.68 | 87.23 | 109.33 | 87.69 | 98.03 | 76.40 | 85.81 | Growth Percent (SR): 92.32%
5 | CC(=O)O[C@H]1CC[C@]2(C)[C@H]3CC[C@@H]4[C@H]5[C@H](C)[C@@]6(C)OC[C@]5(CC[C@@]4(C)[C@]3(C)CC[C@H]2C1(C)C)CC6C(C)=O (stereo partly drawn) [Compound 1] | 86.11 | 74.02 | 64.97 | 99.41 | 98.58 | 80.13 | 78.19 | 74.76 | 81.27 | 42.52 | 84.77 | 84.02 | 75.77 | 92.52 | 48.79 | 80.73 | 88.79 | 88.73 | 109.75 | 49.11 | Growth Percent (SR): 62.46%; Antiproliferative / cytotoxic activity in words [1]: completely lacks activity
6 | COc1cccc2c1C(=O)c1c(O)c3c(c(O)c1C2=O)C[C@@](O)(C(=O)CO)C[C@@H]3O[C@H]1C[C@H](N)[C@H](O)[C@H](C)O1 [Doxorubicin, reference compound] |  |  |  |  |  |  |  |  |  |  |  |  |  |  |  |  |  |  |  |  | GI50 (ACHN; [2]): 80 nM; GI50 (CAKI-1; Homo sapiens, CAKI-1, five dose 0.01–100 μM): 950 nM; GI50 (CCRF-CEM; [2]): 80 nM; GI50 (DU-145; Homo sapiens, DU-145, five dose 0.01–100 μM): 110 nM; GI50 (HS 578T; [2]): 330 nM; GI50 (HT29; Homo sapiens, HT-29, HT29, five dose 0.01–100 μM): 120 nM; GI50 (KM-12; Homo sapiens, KM12, KM-12, five dose 0.01–100 μM): 270 nM; GI50 (M14; Homo sapiens, M14, five dose 0.01–100 μM): 180 nM; GI50 (MALME-3M; [2]): 120 nM; GI50 (MOLT-4; Homo sapiens, MOLT-4, five dose 0.01–100 μM): 30 nM; GI50 (NCI-H23; Homo sapiens, NCI-H23, five dose 0.01–100 μM): 150 nM; GI50 (OVCAR-3; Homo sapiens, OVCAR-3, five dose 0.01–100 μM): 390 nM; GI50 (OVCAR-4; Homo sapiens, OVCAR-4, five dose 0.01–100 μM): 370 nM; GI50 (OVCAR-8; Homo sapiens, OVCAR-8, five dose 0.01–100 μM): 100 nM; GI50 (PC-3; Homo sapiens, PC-3, five dose 0.01–100 μM): 320 nM; GI50 (SK-MEL-28; Homo sapiens, SK-MEL-28, five dose 0.01–100 μM): 210 nM; GI50 (SN12C; [2]): 70 nM; GI50 (SNB-19; Homo sapiens, SNB-19, five dose 0.01–100 μM): 40 nM; GI50 (SR; [2]): 30 nM; GI50 (UACC-62; Homo sapiens, UACC-62, five dose 0.01–100 μM): 120 nM
